# Reference: patent US20150105252A1, “SUBSTITUTED PYRAZOLES AS HERBICIDES” (E I DU PONT DE NEMOURS AND COMPANY, priority 2013, published 2015)
# How the values were obtained:
# Assay in all cases: Test C postemergence
# waterhemp = format: in vivo, Amaranthus rudis; conditions: postemergence
# Outline: (§1)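 Postemergence values come from plants sprayed at the 1- to 4-leaf stage (2–18 cm) in peat moss–vermiculite medium; preemergence values from seeds treated in a loam–sand blend. Both evaluated visually against controls after 13–15 greenhouse days, scale 0–100.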
# ryegrass, Italian = format: in vivo, Lolium multiflorum; conditions: postemergence
# Outline: as §1
# oilseed rape = format: in vivo, Brassica napus; conditions: postemergence
# Outline: as §1
# soybean = format: in vivo, Glycine max; conditions: postemergence
# Outline: as §1
# galium = format: in vivo, Galium aparine
# Outline: as §1
# barnyardgrass = format: in vivo, Echinochloa crus-galli
# Outline: as §1
# ragweed = format: in vivo, Ambrosia elation; conditions: postemergence
# Outline: as §1
# kochia = format: in vivo, Kochia scoparia
# Outline: as §1
# nutsedge, yellow = format: in vivo, Cyperus esculentus
# Outline: as §1
# wheat = format: in vivo, Triticum aestivum; conditions: postemergence
# Outline: as §1
# foxtail, giant = format: in vivo, Setaria faberii
# Outline: as §1
# oat, wild = format: in vivo, Avena fatua
# Outline: as §1
# corn = format: in vivo, Zea mays
# Outline: as §1
# pigweed = format: in vivo, Amaranthus retroflexus; conditions: postemergence
# Outline: as §1
# lambsquarters = format: in vivo, Chenopodium album
# Outline: as §1
# [1] = 250 g ai/ha, scale 0 to 100 (0 no effect, 100 complete control)
# [2] = 125 g ai/ha, scale 0 to 100, 0 no effect, 100 complete control
# [3] = Postemergence, 31 g ai/ha, visually evaluated after 13 to 15 days
# [4] = postemergence, 62 g ai/ha, scale 0 to 100
# [5] = postemergence, 250 g ai/ha, scale 0 to 100 (0 no effect, 100 complete control)
# [6] = postemergence, 125 g ai/ha, scale 0 to 100, 0 no effect, 100 complete control
smiles,measurement,setting,value
CCc1cc(C(=O)NCC(F)(F)F)nn1Cc1cc(OC(F)F)nn1C [Compound 206],"Plant response rating, Waterhemp",waterhemp; [1],45
same,Waterhemp plant response rating,waterhemp; scale 0 to 100,35
same,"Plant response rating, Ryegrass, Italian","ryegrass, Italian; [1]",0
same,"Plant response rating, Ryegrass, Italian","ryegrass, Italian; [2]",0
same,Oilseed Rape plant response rating,"oilseed rape; 62 g ai/ha, scale 0 to 100",5
same,"Plant response rating, Oilseed Rape",oilseed rape; [1],50
same,"Plant response rating, Oilseed Rape",oilseed rape; [2],5
same,"Plant response rating, Soybean",soybean; [1],35
same,Soybean plant response rating,soybean; [2],45
same,"Plant response rating (scale of 0 to 100 where 0 is no effect and 100 is complete control), Galium",galium; [3],30
same,Galium plant response rating,galium; [4],30
same,"Plant response rating, Galium",galium; [5],45
same,"Plant response rating, Galium",galium; [6],60
same,"Plant response rating (scale of 0 to 100 where 0 is no effect and 100 is complete control), Barnyardgrass",barnyardgrass; [3],5
same,Barnyardgrass plant response rating,barnyardgrass; [4],5
same,"Plant response rating, Barnyardgrass",barnyardgrass; [5],5
same,"Plant response rating, Barnyardgrass",barnyardgrass; [6],5
same,"Plant response rating, Ragweed",ragweed; [1],20
same,"Plant response rating, Ragweed",ragweed; [2],35
same,"Plant response rating (scale of 0 to 100 where 0 is no effect and 100 is complete control), Kochia",kochia; [3],30
same,Kochia plant response rating,kochia; [4],35
same,"Plant response rating, Kochia",kochia; [5],75
same,"Plant response rating, Kochia",kochia; [6],45
same,"Plant response rating (scale of 0 to 100 where 0 is no effect and 100 is complete control), Nutsedge, Yellow","nutsedge, yellow; [3]",0
same,"Nutsedge, Yellow plant response rating","nutsedge, yellow; [4]",0
same,"Plant response rating, Nutsedge, Yellow","nutsedge, yellow; [5]",0
same,"Plant response rating, Nutsedge, Yellow","nutsedge, yellow; [6]",0
same,"Plant response rating, Wheat",wheat; [1],0
same,Wheat plant response rating,wheat; scale 0 to 100,0
same,"Plant response rating (scale of 0 to 100 where 0 is no effect and 100 is complete control), Foxtail, Giant","foxtail, giant; [3]",15
same,"Foxtail, Giant plant response rating","foxtail, giant; [4]",5
same,"Plant response rating, Foxtail, Giant","foxtail, giant; [5]",5
same,"Plant response rating, Foxtail, Giant","foxtail, giant; [6]",5
same,"Plant response rating (scale of 0 to 100 where 0 is no effect and 100 is complete control), Oat, Wild","oat, wild; [3]",0
same,"Oat, Wild plant response rating","oat, wild; [4]",0
same,"Plant response rating, Oat, Wild","oat, wild; [5]",5
same,"Plant response rating, Oat, Wild","oat, wild; [6]",5
same,"Plant response rating (scale of 0 to 100 where 0 is no effect and 100 is complete control), Corn",corn; [3],5
same,Corn plant response rating,corn; [4],5
same,"Plant response rating, Corn",corn; [5],5
same,"Plant response rating, Corn",corn; [6],5
same,Pigweed plant response rating,"pigweed; 62 g ai/ha, scale 0 to 100",25
same,"Plant response rating, Pigweed",pigweed; [1],40
same,"Plant response rating, Pigweed",pigweed; [2],40
same,"Plant response rating (scale of 0 to 100 where 0 is no effect and 100 is complete control), Lambsquarters",lambsquarters; [3],10
same,Lambsquarters plant response rating,lambsquarters; [4],10
same,"Plant response rating, Lambsquarters",lambsquarters; [5],30
same,"Plant response rating, Lambsquarters",lambsquarters; [6],15
